Earlier results in patent US8252902B2, “Antibody targeting compounds” (The Scripps Research Institute, priority 2001, dated 2012).

Columns and labels:
VEGFR-2 = VEGFR-2 (Homo sapiens, UniProt P35968)
[1] = test system: VEGF-mediated angiogenesis
[2] = test system: HIV primary isolates and laboratory-adapted strains

Sequence of VEGFR-2 (P35968 20-1356, species assumed): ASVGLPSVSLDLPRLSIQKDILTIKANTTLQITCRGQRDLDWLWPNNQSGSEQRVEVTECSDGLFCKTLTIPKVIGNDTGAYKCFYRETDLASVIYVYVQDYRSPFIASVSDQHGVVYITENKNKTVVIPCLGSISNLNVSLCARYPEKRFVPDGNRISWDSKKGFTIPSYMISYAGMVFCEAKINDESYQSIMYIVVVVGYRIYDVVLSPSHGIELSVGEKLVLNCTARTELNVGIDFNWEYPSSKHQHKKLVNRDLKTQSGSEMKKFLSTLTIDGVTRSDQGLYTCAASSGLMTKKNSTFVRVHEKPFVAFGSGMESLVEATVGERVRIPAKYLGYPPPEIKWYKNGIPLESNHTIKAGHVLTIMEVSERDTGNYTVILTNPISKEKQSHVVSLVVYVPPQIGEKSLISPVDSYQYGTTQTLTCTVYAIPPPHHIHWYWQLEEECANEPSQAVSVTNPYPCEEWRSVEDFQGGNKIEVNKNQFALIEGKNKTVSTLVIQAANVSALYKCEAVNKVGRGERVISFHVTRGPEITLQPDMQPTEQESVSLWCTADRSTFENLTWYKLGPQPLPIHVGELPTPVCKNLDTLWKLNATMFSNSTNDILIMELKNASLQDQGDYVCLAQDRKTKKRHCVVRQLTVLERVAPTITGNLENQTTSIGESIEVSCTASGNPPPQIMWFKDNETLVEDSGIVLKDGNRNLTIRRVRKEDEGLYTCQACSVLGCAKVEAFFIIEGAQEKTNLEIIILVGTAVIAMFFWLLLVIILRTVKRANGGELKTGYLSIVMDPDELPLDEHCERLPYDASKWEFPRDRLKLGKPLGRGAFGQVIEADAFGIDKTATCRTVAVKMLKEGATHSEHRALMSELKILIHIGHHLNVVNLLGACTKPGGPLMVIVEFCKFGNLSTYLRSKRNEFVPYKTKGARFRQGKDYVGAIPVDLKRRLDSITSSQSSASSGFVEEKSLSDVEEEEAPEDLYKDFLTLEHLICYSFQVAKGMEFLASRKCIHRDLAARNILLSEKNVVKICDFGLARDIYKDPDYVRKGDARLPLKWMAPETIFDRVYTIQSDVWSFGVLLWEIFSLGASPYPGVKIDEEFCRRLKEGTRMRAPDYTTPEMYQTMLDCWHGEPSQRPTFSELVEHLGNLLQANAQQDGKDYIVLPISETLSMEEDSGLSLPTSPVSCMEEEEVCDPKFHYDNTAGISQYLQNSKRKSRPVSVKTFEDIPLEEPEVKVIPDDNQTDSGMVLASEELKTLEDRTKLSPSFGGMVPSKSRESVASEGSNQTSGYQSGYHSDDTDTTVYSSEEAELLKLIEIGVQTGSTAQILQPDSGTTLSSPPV

Molecule | interference with VEGF binding to VEGFR-2 (VEGFR-2) | inhibition of VEGF-mediated angiogenesis [1] | anti-HIV activity [2]
ATWLPPR (homo sapiens) [ATWLPPR (SEQ ID NO: 2)] | effectively interfered | inhibited | –
C=C(C)[C@@H]1CC[C@]2(C(=O)NCCCCCCCC(=O)N[C@@H](CC(C)C)[C@H](O)CC(=O)O)CC[C@]3(C)[C@H](CC[C@@H]4[C@@]5(C)CC[C@H](O)C(C)(C)[C@@H]5CC[C@]43C)[C@@H]12 [IC9564] | – | – | can inhibit both HIV primary isolates and laboratory-adapted strains
